The text below walks through data of patent publication US9089129B2, “Non-aerosol foaming alcohol hand sanitizer” (AMERICAN STERILIZER COMPANY, priority 2011, dated 2015).

A short description of data set [1]: Foam quality and stability screen in 70% w/w ethanol solution. Type of data set: physicochemical. Also noted: key: Poor: little to no foam generated; Moderate: some foam generated, and/or foam generated collapsed rapidly; Good: large amount of foam was generated and foam was stable (did not collapse rapidly). The following applies: approximately one gram of component in 15 grams of 70% w/w ethanol solution (aqueous), shaken by hand for 15 seconds. The protocol:
A number of different components were screened to evaluate their ability to create a stable foam in a 70% w/w ethanol solution (aqueous). For this evaluation, approximately one gram of each component was added to 15 grams of the ethanol solution in a vial.

Another data set relates to Serratia marcescens. The data set is described as follows: Pigskin model, 1 and 5 inoculation/treatment cycles. The conditions noted are these: FIG. 4. Here is the method: Each sample was evaluated at two different inoculation/treatment cycles, i.e., at 1 inoculation/treatment and 5 inoculations/treatments. Tests were completed using the pigskin model, the inoculant, Serratia marcescens, and 1 and 5 inoculation/treatment cycles. The “pigskin model” is a method designed to simulate a HCPHW test using pigskins prepared according to the method described in U.S. Pat. No. 7,985,773 to […] et al., incorporated herein by reference. In this example, pigskin pairs were inoculated with bacteria, rubbed together for 15 seconds, and allowed to air dry for 1 minute. The two different ethanol solutions having concentrations of 62% w/w and 70% w/w and two different product formulations N and O, one having 62% w/w ethanol (N) and the other having 70% w/w ethanol (O), were applied to pairs of pigskins (0.2 ml per pair/0.1 ml per piece). The pairs of pigskins (having the same treatment) were rubbed together for 30 seconds and allowed to air dry for 4 minutes. Neutralizer was then applied to the pigskins, they were debrided for 30 seconds, serially diluted and plated.

In the case of “Cocamidopropyl PG-Dimonium Chloride Phosphate”, the “Foam Profile” value in data set [1] is “Poor”. On the same count and under the same terms, next, Lauramine Oxide: “Poor”. On to `CCO` [ethanol], for which the log reduction result in the data set with Serratia marcescens (1 inoculation/treatment cycle) is reported as “did provide efficacy”; in the data set on Serratia marcescens (5 inoculation/treatment cycles), “efficacy decreased”. For Isostearamidopropyl Morpholine Lactate, the “Foam Profile” value in data set [1] is recorded as “Poor”.

As to `CCCCCCCCCCCC(=O)OC(C)C(=O)OC(C)C(=O)[O-].[Na+]` (centres unmarked) [Sodium Lauroyl Lactylate], the “Foam Profile” value in data set [1] is “Poor”. The same measure, in the same setting: in the case of `CCCCCCCC/C=C\CCCCCCCC[N+](C)(C)Cc1ccccc1.[Cl-]` [Olealkonium chloride] it was “Poor”. For the compound Glycereth-7 Cocoate, the “Foam Profile” value in data set [1] is on record as “Poor”.

Turning to PPG-15 Stearyl Ether, the “Foam Profile” value in data set [1] is recorded as “Poor”. Consider Quaternium-92, for which, in data set [1], the “Foam Profile” value is “Poor”. Same read-out and setting: next, `CC(O)C(=O)O.CCCCCCCCCCCCCCCCCC(=O)NCCCN(C)C` [Stearamidopropyl dimethylamine lactate]: “Poor”; POE-2 Coco Amine: “Poor”; `OCC(O)CO` [Glycerin]: “Poor”. The same measure, in the same setting: next, Alkyl Glucoside: “Poor”.

For Quaternium-26, the “Foam Profile” value in data set [1] is recorded as “Poor”. As to `CCCCCCCCCC[N+](C)(C)CCCCCCCCCC.[Cl-]` [Didecyl dimethyl ammonium chloride], the “Foam Profile” value in data set [1] is “Poor”. Consider `CO[C@H]1CO[C@H]2[C@@H]1OC[C@H]2OC` [Dimethyl Isosorbide], for which the “Foam Profile” value in data set [1] was “Poor”. The same measure, in the same setting: next, `CCCCCCCCCCCCCCCCCCCCCC[N+](C)(C)C.COS(=O)(=O)[O-]` [Behentrimonium Methosulfate]: “Poor”; Glycereth-18 Ethylhexanoate: “Moderate”. Take `CCCCCCCCCCCCCC(=O)NCCC[N+](C)(C)CC(O)CO.[Cl-]` (centres unmarked) [Myristamidopropyl PG-dimonium chloride]: the “Foam Profile” value in data set [1] is given as “Poor”.
